Here are results for eight compounds from US12729368B2, “Methods and compositions for generating oligodendrocyte progenitor cells” (Trailhead Biosystems Inc., priority 2022, dated 2026).

For assay [1], the system named is human pluripotent stem cells. Description: HD-DoE #1: 8-factor model, 3-day treatment of pluripotent stem cells, gene expression. Conditions: for impact on NKX2-2 and OLIG2 expression levels: dynamic profile, 8-factor model; for factor contribution: positive effect. The format is cell-based. An excerpt:
This example utilizes a method of High-Dimensional Design of Experiments (HD-DoE), as previously described in Bukys et al. (2020) Iscience 23:101346. The method employs computerized design geometries to simultaneously test multiple process inputs and offers mathematical modeling of a deep effector/response space. The method allows for finding combinatorial signaling inputs that control a complex process, such as during cell differentiation. It allows testing of multiple plausible critical process parameters, as such parameters impact output responses, such as gene expression. Because gene expression provides hallmark features of the phenotype of, for example, a human cell, the method can be applied to identify, and understand, which signaling pathways control cell fate. In the current example, the HD-DOE method was applied with the intent to find conditions for induction of oligodendrocyte progenitor-expressed genes, directly from the pluripotent stem cell state.
Specifically, to develop a novel method to generate oligodendrocytes, the impact of agonists and antagonists of multiple signaling pathways (herein called effectors) were tested on expression of two sets of 53 pre-selected genes after a 3-day treatment. These effectors are small molecules that are commonly used during stepwise differentiation of stem cells to specific fates. Choice of the effectors were based on current literature on neural induction in anterior ectoderm and differentiation of stem cells to oligodendrocytes.
To test the effectors, experiments with at least 8 factors were designed that can assess the response of cells to 48 or more different combinations of effectors in a range of concentrations. To analyze the models, we focused on expression of genes expressed during early development of anterior neuroectoderm and oligodendrocytes including NKX2-2, OLIG2, OLIG1, and PDGFRA. The impact of each effector on gene expression level is defined by a parameter called factor contribution that is calculated for each effector during the modeling.
This model tested 8 factors: PD0325901, MK2206, TTNPB, SC79, MHY1485, ZM336372, AGN193109 and AZD3147.

Assay [2] has as its system stage 2 early-OPCs. Description: HD-DoE 12-factor model for stage 3 (version 1) on stage 2 early-OPCs. The format is cell-based, human. The protocol: In another model, the effects of Activin A and TTNPB along with LDN193189, MHY1485, PDGF-AA, AICAR, FGF2, CHIR99021, DBZ, MK2206, Purmorphamine and T3+T4 were tested on gene profile of differentiating cells. When this model was optimized for maximum expression of SOX10 at 54.7, we observed Activin A again had positive regulatory impact on its expression, with factor contribution of 4.7. Other positive factors included MK2206, with the highest factor contribution at 16.2, MHY1485 at 11.49, CHIR99021 at 9.6, DBZ at 9.3, FGF2 at 3.6 and PDGF-AA, with factor contribution less than 3 (FIG. 20).
In this model, we also investigated the conditions of expression of another important OPC gene, CSPG4 (Goldman and Kuypers (2015) Development 142:3983-95: van Tilborg et al. (2018) Glia 66:221-238).
Dynamic profile analysis was used to better assess the impact of the factors on our selected genes and find the combination set that can optimize their expression (FIG. 22). According to this analysis, even though Activin A has a positive effect on SOX10, it decreases level of PDGFRa and OLIG1. […] Moreover, SOX10 is one of the main transcription factors of oligodendrocytes, along with OLIG2 and NKX2-2, that has shown the potential to commit the stem cells to oligodendrocytes in reprogramming efforts (Wang et al. (2014) Proc Natl Acad Sci USA 111:E2885-94; Garciá-León et al. (2018) Stem Cell Reports 10:655-672). […] One of the main challenges of differentiating cells to oligodendrocyte fate is controlling the mixed population and increasing the purity of the culture by committing more cells to oligodendrocyte over neuronal identity. Therefore, DBZ was excluded from the final recipe.
At this point, we investigated the expression profile of a larger group of genes defining oligodendrocyte progenitor population at a later stage, including ID2, CNP and BCAN (Perlman et al. (2020). Glia 68:1291-1303; Goldman and Kuypers (2015) Development 142:3983-95). In this model, these genes were expressed at 1900, 660 and 44, respectively.

Assay [3] relates to pre-OPCs. The assay is described as follows: HD-DoE 12-factor model for stage 2 (version 1), 3 days on stage 1 pre-OPCs. In kind it is cell-based, human. Particulars: optimized for maximum expression of OLIG2 at 1841.6. An excerpt:
To engineer the recipe of stage 2 of differentiation, cells were first cultured in the stage 1 media described in Example 1 and then treated with combinations of 8 or 12 factors for 3 days and the gene expression of cells in each condition was modeled. At this point, due to short duration of culture (only six days in vitro), we decided to focus on maximal expression of OLIG2 and maintenance of high expression of NKX2-2, while initiating expression of SOX10, OLIG1 and PDGFRa, to guide the cells towards oligodendrocyte fate (Emery and Lu (2015). Cold Spring Harb Perspect Biol. 7:a020461; Perlman et al. (2020). Glia 68:1291-1303; Goldman and. Kuypers (2015) Development 142:3983-95).
In one 12-factor model, the individual and combinatorial impact of SUN 11602 an agonist for FGF signaling pathway, FGF2, Activin A an activator of one of the receptors of TGF-b superfamily, A 8301, an inhibitor of TGF-b pathway, CHIR99021 a WNT activator, AGN193109 a RA antagonist, MK2206 an AKT inhibitor, Purmorphamine an agonist of SHH signaling pathway, AZD3147 an antagonist of mTOR pathway, MHY1485 an agonist of mTOR pathway, SC79 an agonist of AKT pathway and G06983 an inhibitor of PKC pathway, were tested.
Dynamic profile analysis was used to assess the expression levels of other genes of interests, such as NKX2-2, OLIG1 and SOX10, while the model is maximized for OLIG2. Activin A and SUN 11602 were brought down to zero due to their very low factor contribution. We observed when the model is optimized, the expression level of NKX2-2 is at 3000, PDGFRa at 1000, OLIG1 at 80 and SOX10 at 15 (FIG. 12).

Assay [4] has as its system human pluripotent stem cells. Description: HD-DoE #2: 13-factor model, differentiation toward anterior neuroectoderm, gene expression. Conditions: model optimized for highest expression of FEZF2 at 4466; positive. The format is cell-based. The source says:
To further enhance the conditions for oligodendrocyte differentiation from pluripotency, we performed an additional HD-DoE experiment. We obtained additional gene regulatory models that were used for preparation of a differentiation protocol. The basis of this was a 13-factor HD-DoE experiment with focus on initiation of differentiation of cells toward anterior neuroectoderm. In this model, we focused on expression of FEZF2 and OTX2.
As shown in the results summarized in FIG. 4, the model was optimized for highest expression of OTX2 at 12755.9. According to the model of high expression of OTX2, seven effectors had positive contribution including MK2206, PD0325901, CHIR99021, LDN193189, Go6983, PD173074 and BLU9931 with highest factor contribution of 22.2 for MK2206 and lowest factor contribution of 1.7 for PD173074 and BLU9931.
As shown in the results summarized in FIG. 5, the model was optimized for highest expression of FEZF2 at 4466. When the model was optimized for maximum expression level of FEZF2, three effectors including LDN193189 with factor contribution of 19.5, PD0325901 with factor contribution of 14.6 and MK2206 with factor contribution of 12.3 were common with previous condition and three new effectors including purmorphamine-500 nM, XAV939 and SC79 were introduced.
As shown in the results summarized in FIG. 6, to fine-tune the recipe and find the optimum combination of factors for high expression of both OTX2 and FEZF2, dynamic profiling analysis was done. […] Therefore, these two factors were added to the optimized culture recipe.

Assay [5] concerns stage 2 early-OPCs. Description: HD-DoE 8-factor model for stage 3 (version 1) on stage 2 early-OPCs. In kind it is cell-based, human. The protocol: (§1) To further differentiate the cells to an oligodendrocyte progenitor identity, additional HD-DoE experiments were performed on the cells that were cultured in stage 1 and stage 2 differentiation media. After 3 days, gene expression of cells in different combinatorial conditions were investigated. At this time, we focused on maximal expression of signature oligodendrocyte progenitor genes such as SOX10, OLIG1 and PDGFRa (Goldman and Kuypers (2015) Development 142:3983-95; Marques et al. (2016) Science 352:1326-1329). In one 8-factor model, individual and combinatorial effects of LDN193189, SUN 11602, Activin A, Biotin, TTNPB, Isoproterenol, linoleic acid and T3+T4 were tested.
The same model was also optimized for maximum expression of PDGFRa at 3510.9. Two factor specifically, TTNPB and Linoleic acid determined the expression level of PDGFRa with factor contribution of 71.6 and 22.1, respectively (FIG. 17). […] The model was also optimized for highest expression of SOX10 at 18.8. In this optimization, TTNPB was the only input that could elevate the expression level of the selected gene (FIG. 18).
Dynamic profile analysis was utilized to explore combination sets that can optimize expression of all three selected genes. […] Since Activin A is the main compound regulating expression level of OLIG1, we investigated the changes in the plots after addition of Activin A and observed that expression level of SOX10 is still in the target range and PDGFRa is expressed at a high level too (2520).

Assay [6] relates to cells cultured in stage 1 and stage 2 differentiation media. Description: HD-DoE 8-factor model for stage 3 (version 2). In kind it is cell-based, human. How it is done: as §1, with “142:3983-95:” for “142:3983-95;”, “TTNPB (an RA agonist), CHIR99021, FGF-2, IGF-1, AGN193109, Purmorphamine, MHY1485 (a mTOR pathway agonist)” for “LDN193189, SUN 11602, Activin A, Biotin, TTNPB, Isoproterenol, linoleic acid”, “SC79 (an AKT pathway agonist)” for “T3+T4”, “tested to guide the cells toward a SOX10/PDGFRa positive population. […] CHIR99021 was also positive, with a factor contribution of 8.1 (FIG. 33).” for “tested.”
Other positive factors were IGF-1, with a factor contribution of 11.2, CHIR99021, with a factor contribution of 8.5 and TTNPB, with a factor contribution below 1 (FIG. 34).
To confirm the impact of TTNPB, FGF-2 and IGF-1 on a bigger scale, we investigated the expression profile of a larger group of genes defining late oligodendrocyte progenitor population, such as ID2, CSPG4, FYN, SOX8, PLP1 and BCAN (Perlman et al. (2020). Glia 68:1291-1303; Goldman and Kuypers (2015) Development 142:3983-95; van Tilborg et al. (2018) Glia 66:221-238) and neuronal genes such as NEUROD1, NEUROG1 and NEUROG2 in presence of IGF-1, FGF-2 or TTNPB.

The mark [7] stands for this setting: model optimized for maximum expression of PDGFRA.
Where [8] appears, read: model optimized for maximum expression of NKX2-2.
Where [9] appears, read: optimized for maximum expression of OLIG1 at 256, positive impact.
Where [10] appears, read: optimized for maximum expression of PDGFRa at 3510.9, positive.

Values joined by “and” are separate entries in the source; they are usually repeats but may differ in a detail not shown here. Equal values may be shown once.

Regarding `Cc1ccc(NC(=O)c2cccc(N(C)C)c2)cc1NC(=O)c1ccc(O)cc1` [ZM336372], the “impact on NKX2-2 and OLIG2 expression levels” value in assay [1] was “negatively impacting”. In addition, the factor contribution in assay [1] (setting [7]) is recorded as less than 1.

Consider `O=[N+]([O-])c1ccc(Nc2nc(N3CCOCC3)nc(N3CCOCC3)n2)cc1` [MHY1485], for which the factor contribution in assay [2] (optimized for maximum expression of SOX10 at 54.7, positive) is 11.49 and 11.5; in assay [1] (setting [8]), 13.8; in assay [1] (setting [7]) it was 13.4; in assay [3] (negative impact) it was 22.5.

Consider `c1ccc2c(-c3cnn4cc(-c5ccc(N6CCNCC6)cc5)cnc34)ccnc2c1` [LDN193189], for which the factor contribution in assay [4] came out at 19.5; in assay [2] (optimized for maximum expression of CSPG4 at 38.6, negative impact), 16.9; in assay [5] (setting [9]) it was 10.8.

As for `CCCCC/C=C\C/C=C\CCCCCCCC(=O)O` [Linoleic acid], the factor contribution in assay [5] (setting [10]) was determined as 22.1.

On to `CCOC(=O)C1=C(N)Oc2ccc(Cl)cc2C1C(C#N)C(=O)OCC` (centres unmarked) [SC79], for which the factor contribution in assay [1] (setting [8]) is 1.47; in assay [3] (positive regulatory effect) it was 3.6; in assay [6] (optimized for SOX10 at 41.04, negative impact), 30.2.

As for `O=C(NOC[C@H](O)CO)c1ccc(F)c(F)c1Nc1ccc(I)cc1F` [PD0325901], the factor contribution in assay [4] was 14.6; in assay [1] (setting [7]) it was 30.6 and 30.05. In assay [1], the “impact on NKX2-2 and OLIG2 expression levels” value was “negatively impacting”.

For `Cc1c(C)c(NCC(=O)N(C)C2CCN(Cc3ccc(C(N)=O)cc3)CC2)c(C)c(C)c1N` [SUN 11602], in assay [5] (setting [9]), the factor contribution came to 3.7.

On to `C/C(=C\c1ccc(C(=O)O)cc1)c1ccc2c(c1)C(C)(C)CCC2(C)C` [TTNPB], for which the factor contribution in assay [2] (optimized for maximum expression of CSPG4 at 38.6, positive) is 15.96 and 15.9; in assay [5] (optimized for highest expression of SOX10 at 18.8, positive), 8; in assay [5] (setting [9]), 19.11 and 19.1; in assay [5] (setting [10]) it was 71.6; in assay [1] (setting [8]), 31.3; in assay [1] (setting [7]), 49.01. Moreover, the factor contribution in assay [6] (optimized for SOX10 at 41.04, positive) was 17.98; in assay [6] (optimized for maximum expression of PDGFRa at 853.4, positive) it was “below 1”. Further, in assay [6] (factor plots vs concentration), the “effect on late OPC genes and neuronal genes” value is “negative effect of TTNPB on OPC genes and its positive effect on neuronal genes”.
